Source: paper PMC10675646 (Viruses, 2023)
Where a SMILES comes first, the peptide text is derived from it. The star is where a group is joined. 5FAM = O=C1OC2(c3ccc(O)cc3Oc3cc(O)ccc32)c2ccc(C(=O)*)cc21; Ahx = NCCCCCC(=O)O

Molecular target: T1, 6xHis-SUMO-TRAF2 (residues 315–501) TRAF-C domain (Homo sapiens, UniProt Q12933)
T1 sequence (Q12933 315-501): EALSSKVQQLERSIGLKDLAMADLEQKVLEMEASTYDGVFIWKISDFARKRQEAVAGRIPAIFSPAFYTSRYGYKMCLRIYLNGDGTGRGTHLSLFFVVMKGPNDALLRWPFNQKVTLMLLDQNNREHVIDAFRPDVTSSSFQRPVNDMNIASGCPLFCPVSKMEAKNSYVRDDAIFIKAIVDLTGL
Assay: Fluorescence polarization (FP) binding assay, TRAF2 TRAF-C domain
Conditions: summary range stated for TRAF2 and TRAF3 TRAF-C together, read-out: Binding affinities between the PIQAS peptide and SUMO-TRAF-C proteins (range)

## CC[C@H](C)[C@H](NC(=O)[C@@H]1CCCN1C(=O)CCCCCNC(=O)c1ccc2c(c1)C(=O)OC21c2ccc(O)cc2Oc2cc(O)ccc21)C(=O)N[C@@H](CCC(N)=O)C(=O)N[C@@H](C)C(=O)N[C@@H](CO)C(N)=O [PIQAS peptide] ({5FAM-Ahx}-PIQAS-NH2)
  Kd: 150 to 200 µM
